For data set [1], the target named is T1, Hansenula polymorpha xylose reductase (XR) variant XRm, K341R N343D, cofactor binding site SEQ ID NO: 2 (Ogataea polymorpha, UniProt A0A1B7SLF1, K271R/N273D).
T1 sequence (A0A1B7SLF1 with tags, fused parts or gaps K271R/N273D): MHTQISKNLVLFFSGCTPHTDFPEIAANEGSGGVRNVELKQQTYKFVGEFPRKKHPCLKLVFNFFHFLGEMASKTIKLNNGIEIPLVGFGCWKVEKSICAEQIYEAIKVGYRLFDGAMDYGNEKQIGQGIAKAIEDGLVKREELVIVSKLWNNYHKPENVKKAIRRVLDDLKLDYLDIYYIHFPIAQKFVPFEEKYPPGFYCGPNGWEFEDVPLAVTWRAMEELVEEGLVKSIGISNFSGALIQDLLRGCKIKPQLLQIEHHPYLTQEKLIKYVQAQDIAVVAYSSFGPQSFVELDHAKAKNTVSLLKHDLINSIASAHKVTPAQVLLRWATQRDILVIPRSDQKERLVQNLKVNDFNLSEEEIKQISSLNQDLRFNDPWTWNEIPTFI
Put plainly: KM towards NADPH or NADH of engineered xylose reductase (XRm), spectrophotometric XR assay in cell extract. To be noted: XRm vs native XR. The protocol:
The XR activity in cell extracts was determined spectrophotometrically at 37° C. […] The reaction was started with cell extract addition.
Biochemical properties of XR in one of constructed recombinant strains (designated XRm) were studied.

For data set [2], the target named is T2, Hansenula polymorpha xylose reductase (XR), native (XRn), cofactor binding site SEQ ID NO: 1 (Ogataea polymorpha, UniProt A0A1B7SLF1).
T2 construct: native XYL1 ORF from CBS4732 genomic DNA, HpGAP promoter (pX1N-Z), overexpressed in H. polymorpha Δxyl1; cell extract
T2 sequence (A0A1B7SLF1 with tags, fused parts or gaps): T1 sequence (A0A1B7SLF1 with tags, fused parts or gaps K271R/N273D) with R341K, D343N
Put plainly: KM towards NADPH or NADH of native xylose reductase (XRn), spectrophotometric XR assay in cell extract. The format is biochemical. The conditions noted are these: dual cofactor specificity.

Substrate in data set [3]: NC(=O)C1=CN([C@@H]2O[C@H](COP(=O)(O)OP(=O)(O)OC[C@H]3O[C@@H](n4cnc5c(N)ncnc54)[C@H](O)[C@@H]3O)[C@@H](O)[C@H]2O)C=CC1
Put plainly: cells, lysate or membranes. The conditions noted are these: other: XRm, 37° C., pH 7.0, xylose 350 mM, NADH 20-150 μM.

Substrate in data set [4]: NC(=O)C1=CN([C@@H]2O[C@H](COP(=O)(O)OP(=O)(O)OC[C@H]3O[C@@H](n4cnc5c(N)ncnc54)[C@H](OP(=O)(O)O)[C@@H]3O)[C@@H](O)[C@H]2O)C=CC1
Put plainly: cells, lysate or membranes. The conditions noted are these: xylose as substrate, 37° C., pH 7.0, xylose 350 mM, NADPH 20-150 μM.

Changes are numbered by the printed parent chain. Numbers in names are those of the source.

For the molecule `NC(=O)C1=CN([C@@H]2O[C@H](COP(=O)(O)OP(=O)(O)OC[C@H]3O[C@@H](n4cnc5c(N)ncnc54)[C@H](OP(=O)(O)O)[C@@H]3O)[C@@H](O)[C@H]2O)C=CC1` [NADPH], in data set [1], the “KM for NADPH, change against native XR (in words)” value is on record as “significant increase”. For the same molecule, in data set [1] (xylose as substrate), the “KM for NADPH, times higher than the KM for NADPH of the native XR” value worked out at 17 times. In data set [2], the “cofactor preference for NADPH (over NADH)” value was over 10 fold.

As to `NC(=O)C1=CN([C@@H]2O[C@H](COP(=O)(O)OP(=O)(O)OC[C@H]3O[C@@H](n4cnc5c(N)ncnc54)[C@H](O)[C@@H]3O)[C@@H](O)[C@H]2O)C=CC1` [NADH], the “KM for NADH, compared with native XR (in words)” value in data set [1] was “remained nearly unchanged”.

B1: Hansenula polymorpha xylose reductase (XR) variant XRm, K341R N343D, cofactor binding site SEQ ID NO: 2 (Ogataea polymorpha; K271R/N273D) (protein)
chain: T1 sequence (A0A1B7SLF1 with tags, fused parts or gaps K271R/N273D)
For B1, the Km in data set [3] was determined as 112 µM; in data set [4] (other: XRm), 152 µM.

B2: Hansenula polymorpha xylose reductase (XR), native (XRn), cofactor binding site SEQ ID NO: 1 (Ogataea polymorpha) (protein)
chain: T1 sequence (A0A1B7SLF1 with tags, fused parts or gaps K271R/N273D) with R341K, D343N
Consider B2, for which, in data set [4] (other: native XR), the Km was determined as 9 µM.

The values above are taken from patent US9228178B2, “Engineering of xylose reductase and overexpression of xylitol dehydrogenase and xylulokinase improves xylose alcoholic fermentation in the thermotolerant yeast Hansenula polymorpha” (Archer Daniels Midland Co., priority 2008, dated 2016).
